Some results are limits rather than exact numbers.

In experiment [1] the target is IL-17A(FLAG-Tagged): IL-17RA(His-Tagged) (Homo sapiens, UniProt Q16552, K93Q). Put plainly: IL-17A(FLAG-Tagged): IL-17RA(His-Tagged) Binding Disruption Eu-HTRF Assay. Conditions: IL-17A/IL-17RA binding disruption, simple average if tested more than once. A digest of the protocol: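 IC50 comes from a one-site competition fit of the HTRF 665/620 nm ratio. Compound dilutions (2-fold, 22 points) were held 1 h rt with FLAG-tagged IL-17A dimer, then His-tagged IL-17RA plus Eu-cryptate anti-FLAG and D2 anti-His antibodies were added for 2 h rt.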

Experiment [2] relates to IL-17A-induced G-CSF production in human normal keratinocyte (NHK). Put plainly: NHK Assay: IL-17A-induced G-CSF production in human normal keratinocytes. The class given is cell-based. The following applies: adult normal human keratinocytes, IL-17A 5 ng/mL, 24 h, simple average if tested more than once. An outline of the steps:
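Inhibition of IL-17A-driven G-CSF release is measured in adult keratinocytes stimulated for 24 h at 37° C with 5 ng/mL human IL-17A that had been pre-incubated with compound for 1 h. IC50 comes from HTRF G-CSF levels; cell viability is checked in parallel by luminescent ATP assay.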

Chain of UniProt Q16552 (Q16552 with tags, fused parts or gaps K93Q): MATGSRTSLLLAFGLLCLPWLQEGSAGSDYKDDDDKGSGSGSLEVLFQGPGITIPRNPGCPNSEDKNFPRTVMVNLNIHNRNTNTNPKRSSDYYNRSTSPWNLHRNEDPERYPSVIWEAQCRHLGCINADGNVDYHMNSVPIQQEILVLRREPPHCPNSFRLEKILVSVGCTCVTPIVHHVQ

As to `CC(CC(=O)N[C@@H](c1cnn2cc([C@@H](NC(=O)c3conc3C3CC3)C3CCC(F)(F)CC3)nc2c1)C1CC1)C(F)(F)F` (single isomer, unassigned) [Example 128, 3-Cyclopropyl-N—((S)-(7-((R)-cyclopropyl((R*)-4,4,4-trifluoro-3-methylbutanamido)methyl)imidazo[1,2-b]pyridazin-2-yl)(4,4-difluorocyclohexyl)methyl)isoxazole-4-carboxamide], the IC50 in experiment [1] was 32 nM; in experiment [2] it was 96 nM.
On the same counts, the results for `CC(CC(=O)N[C@@H](c1cnn2cc([C@@H](NC(=O)c3conc3C3CC3)C3CCC(F)(F)CC3)nc2c1)C1CC1)C(F)(F)F` (single isomer, unassigned) [Example 129, 3-Cyclopropyl-N—((S)-(7-((R)-cyclopropyl((S*)-4,4,4-trifluoro-3-methylbutanamido)methyl)imidazo[1,2-b]pyridazin-2-yl)(4,4-difluorocyclohexyl)methyl)isoxazole-4-carboxamide] are 51 nM and 250 nM.
For the compound `CC(C)n1nccc1C(=O)N[C@H](c1cn2ncc(C(NC(=O)CCC(F)F)C3CC3)cc2n1)C1CCC(F)(F)CC1` (single isomer, unassigned) [Example 135, N-((1S)-(7-((R*)-Cyclopropyl(4,4-difluorobutanamido)methyl)imidazo[1,2-b]pyridazin-2-yl)(4,4-difluorocyclohexyl)methyl)-1-isopropyl-1H-pyrazole-5-carboxamide], the IC50 was 110 nM in experiment [1] and 230 nM in experiment [2] (Homo sapiens, Keratinocyte).
In the case of `CC(C)n1nccc1C(=O)N[C@H](c1cn2ncc(C(NC(=O)CC(C)(C)O)C3CC3)cc2n1)C1CCC(F)(F)CC1` (single isomer, unassigned) [Example 136, N—((S)-(7-((R*)-Cyclopropyl(3-hydroxy-3-methylbutanamido)methyl)imidazo[1,2-b]pyridazin-2-yl)(4,4-difluorocyclohexyl)methyl)-1-isopropyl-1H-pyrazole-5-carboxamide], the IC50 is 400 nM in experiment [1] and 790 nM in experiment [2].
On to `CC(C)n1nccc1C(=O)N[C@H](c1cn2ncc(C(NC(=O)CC(C)(C)O)C3CC3)cc2n1)C1CCC(F)(F)CC1` (single isomer, unassigned) [Example 137, N—((S)-(7-((S*)-Cyclopropyl(3-hydroxy-3-methylbutanamido)methyl)imidazo[1,2-b]pyridazin-2-yl)(4,4-difluorocyclohexyl)methyl)-1-isopropyl-1H-pyrazole-5-carboxamide], for which the IC50 in experiment [1] is 14000 nM; in experiment [2], over 20000 nM.
For the compound `CC(C)n1nccc1C(=O)N[C@H](c1cn2ncc([C@@H](NC(=O)C[C@H]3CC3(F)F)C3CC3)cc2n1)C1CCC(F)(F)CC1` (single isomer, unassigned) [Example 138], the IC50 is 780 nM in experiment [1] and 1300 nM in experiment [2] (Homo sapiens, Keratinocyte).
`CC(C)n1nccc1C(=O)N[C@H](c1cn2ncc([C@@H](NC(=O)C[C@@H]3CC3(F)F)C3CC3)cc2n1)C1CCC(F)(F)CC1` (single isomer, unassigned) [Example 139]: the IC50 in experiment [1] came out at 730 nM; in experiment [2] (Homo sapiens, Keratinocyte), 690 nM.
`CC(C)n1nccc1C(=O)N[C@H](c1cn2ncc([C@H](NC(=O)C[C@H]3CC3(F)F)C3CC3)cc2n1)C1CCC(F)(F)CC1` (single isomer, unassigned) [Example 140]: the IC50 in experiment [1] is 70 nM; in experiment [2] (Homo sapiens, Keratinocyte), 89 nM.
On the same counts, the results for `CC(C)n1nccc1C(=O)N[C@H](c1cn2ncc([C@H](NC(=O)C[C@@H]3CC3(F)F)C3CC3)cc2n1)C1CCC(F)(F)CC1` (single isomer, unassigned) [Example 141] are 130 nM and 200 nM.
Turning to `CC(C)C(NC(=O)CCC(F)(F)F)c1cnn2cc([C@@H](NC(=O)c3ccnn3C(C)C)C3CCC(F)(F)CC3)nc2c1` (single isomer, unassigned) [Example 154, N—((S)-(4,4-Difluorocyclohexyl)(7-((R*)-2-methyl-1-(4,4,4-trifluorobutanamido)propyl)imidazo[1,2-b]pyridazin-2-yl)methyl)-1-isopropyl-1H-pyrazole-5-carboxamide], the IC50 in experiment [1] amounted to 430 nM; in experiment [2] it was 640 nM.
Consider `CC(C)C(NC(=O)CCC(F)(F)F)c1cnn2cc([C@@H](NC(=O)c3ccnn3C(C)C)C3CCC(F)(F)CC3)nc2c1` (single isomer, unassigned) [Example 155, N—((S)-(4,4-Difluorocyclohexyl)(7-((S*)-2-methyl-1-(4,4,4-trifluorobutanamido)propyl)imidazo[1,2-b]pyridazin-2-yl)methyl)-1-isopropyl-1H-pyrazole-5-carboxamide], for which the figures for the IC50 in experiment [1] and in experiment [2] were 130 nM and 53 nM, respectively.
As to `Cc1nonc1C(=O)N[C@H](c1cn2ncc([C@H](NC(=O)CC(C)C(F)(F)F)C3CC3)cc2n1)C1CCC(F)(F)CC1` (single isomer, unassigned) [Example 243, N—((S)-(7-((R)-Cyclopropyl((R*)-4,4,4-trifluoro-3-methylbutanamido)methyl)imidazo[1,2-b]pyridazin-2-yl)(4,4-difluorocyclohexyl)methyl)-4-methyl-1,2,5-oxadiazole-3-carboxamide], the IC50 in experiment [1] amounted to 89 nM; in experiment [2] (Homo sapiens, Keratinocyte), 270 nM.
As for `CC(C)n1nccc1C(=O)N[C@H](c1cn2ncc([C@H](NC(=O)C[C@H]3C[C@@H](F)C3)C3CC3)cc2n1)C1CCC(F)(F)CC1` (single isomer, unassigned) [Example 257], the IC50 is 110 nM in experiment [1] and 120 nM in experiment [2] (Homo sapiens, Keratinocyte).
As for `CC(C)n1nccc1C(=O)N[C@H](c1cn2ncc([C@H](NC(=O)C[C@H]3C[C@H](F)C3)C3CC3)cc2n1)C1CCC(F)(F)CC1` (single isomer, unassigned) [Example 258], the IC50 in experiment [1] was found to be 130 nM; in experiment [2] (Homo sapiens, Keratinocyte), 46 nM.
For `Cc1nonc1C(=O)N[C@H](c1cn2ncc([C@H](NC(=O)CC(C)C(F)F)C3CC3)cc2n1)C1CCC(F)(F)CC1` (single isomer, unassigned) [Example 264, N—((S)-(7-((R)-Cyclopropyl((R*)-4,4-difluoro-3-methylbutanamido)methyl)imidazo[1,2-b]pyridazin-2-yl)(4,4-difluorocyclohexyl)methyl)-4-methyl-1,2,5-oxadiazole-3-carboxamide], the IC50 amounted to 48 nM in experiment [1] and 350 nM in experiment [2].
Taken in the same sequence, the figures for `Cc1nonc1C(=O)N[C@H](c1cn2ncc([C@H](NC(=O)CC(C)C(F)F)C3CC3)cc2n1)C1CCC(F)(F)CC1` (single isomer, unassigned) [Example 265, N—((S)-(7-((R)-Cyclopropyl((S*)-4,4-difluoro-3-methylbutanamido)methyl)imidazo[1,2-b]pyridazin-2-yl)(4,4-difluorocyclohexyl)methyl)-4-methyl-1,2,5-oxadiazole-3-carboxamide] were 210 nM and 1100 nM.
Take `Cc1nonc1C(=O)N[C@H](c1cn2ncc([C@H](NC(=O)C[C@H]3C[C@H](F)C3)C3CC3)cc2n1)C1CCC(F)(F)CC1` (single isomer, unassigned) [Example 266]: the IC50 is 56 nM in experiment [1] and 290 nM in experiment [2] (Homo sapiens, Keratinocyte).
Taken in the same sequence, the figures for `Cc1nonc1C(=O)N[C@H](c1cn2ncc([C@H](NC(=O)C[C@H]3C[C@@H](F)C3)C3CC3)cc2n1)C1CCC(F)(F)CC1` (single isomer, unassigned) [Example 267] were 87 nM and 350 nM.
Consider `CC(C)n1nccc1C(=O)N[C@H](c1cn2ncc([C@H](NC(=O)CCC3CC3(F)F)C3CC3)cc2n1)C1CCC(F)(F)CC1` (single isomer, unassigned) [Example 270, N—((S)-(7-((R)-Cyclopropyl(3-((R*)-2,2-difluorocyclopropyl)propanamido)methyl)imidazo[1,2-b]pyridazin-2-yl)(4,4-difluorocyclohexyl)methyl)-1-isopropyl-1H-pyrazole-5-carboxamide], for which the IC50 in experiment [1] worked out at 150 nM; in experiment [2] (Homo sapiens, Keratinocyte), 38 nM.
In the case of `CC(C)n1nccc1C(=O)N[C@H](c1cn2ncc([C@H](NC(=O)CCC3CC3(F)F)C3CC3)cc2n1)C1CCC(F)(F)CC1` (single isomer, unassigned) [Example 271, N—((S)-(7-((R)-Cyclopropyl(3-((S*)-2,2-difluorocyclopropyl)propanamido)methyl)imidazo[1,2-b]pyridazin-2-yl)(4,4-difluorocyclohexyl)methyl)-1-isopropyl-1H-pyrazole-5-carboxamide], the IC50 stood at 140 nM in experiment [1] and 67 nM in experiment [2].
As to `CC(CC(=O)N[C@@H](c1cnn2cc([C@@H](NC(=O)c3conc3OCC(F)F)C3CCC(F)(F)CC3)nc2c1)C1CC1)C(F)(F)F` (single isomer, unassigned) [Example 298, N—((S)-(7-((R)-Cyclopropyl((R*)-4,4,4-trifluoro-3-methylbutanamido)methyl)imidazo[1,2-b]pyridazin-2-yl)(4,4-difluorocyclohexyl)methyl)-3-(2,2-difluoroethoxy)isoxazole-4-carboxamide], the IC50 worked out at 250 nM in experiment [1] and 610 nM in experiment [2] (Homo sapiens, Keratinocyte).
For `CC(CC(=O)N[C@@H](c1cnn2cc([C@@H](NC(=O)c3conc3OCC(F)F)C3CCC(F)(F)CC3)nc2c1)C1CC1)C(F)(F)F` (single isomer, unassigned) [Example 299, N—((S)-(7-((R)-Cyclopropyl((S*)-4,4,4-trifluoro-3-methylbutanamido)methyl)imidazo[1,2-b]pyridazin-2-yl)(4,4-difluorocyclohexyl)methyl)-3-(2,2-difluoroethoxy)isoxazole-4-carboxamide], the IC50 in experiment [1] was found to be 300 nM; in experiment [2], 840 nM.

What is called IC50 is the midpoint of a concentration-inhibition curve. Read a high IC50 as lower potency.

The record behind these values is patent US11702422B2, “Imidazopyridazines as modulators of IL-17” (Janssen Pharmaceutica NV, priority 2020, dated 2023).
